According to patent publication US20070043108A1, “Use of equol for ameliorating or preventing neuropsychiatric and neurodegenerative diseases or disorders” (priority 2002, published 2007):
Read-outs that look alike come from different tables or passages of the source.

What was measured:
[1] = Competition and binding studies of equol with other labelled steroids
[2] = system: Adult male Sprague-Dawley rats; assay: Example 3: prostate, epididymis and body weight gain in male rats treated with racemic, R- or S-equol; type: in vivo, rat; settings: for Body Wt Gain (g) / Epididymis (g) / Prostate (g): 0.25 mg/kg/day sc, seven days
Experimental: Adult male Sprague-Dawley rats are randomly assigned to […] groups and receive daily injections of either DMSO, a racemic mixture of equol at 0.250 mg/kg/day), R-equol at 0.250 mg/kg/day, or S-equol at 0.250 mg/kg/day. The total volume of each injection is 0.3 cc, administered sc at the nape of the rat's neck. After seven consecutive days of treatment, the rats are killed and the body weight gain during the injection period is determined.

[3] = system: Adult male Sprague-Dawley rats; assay: Example 15: elevated plus maze of equol injected male rats; type: in vivo, rat; settings: 0.250 mg/Kg/day sc, seven days, n = 8
Text: The elevated plus maze is a behavioral test used to quantify anxiety-related behavior and identify anxiolytic drugs (Pellow S. et al., J Neurosci Methods, 14:149-147 (1985); Current Protocols In Neuroscience (1997) 8.3.1-8.3.15, John Wiley & Sons. NY, N.Y.). The test relies on the inherent conflict between exploration of a novel environment and avoidance of its aversive features. Normally, animals spend little time and make few entries into the open arms of the maze compared to the closed arms of the maze (Imhof J. T. et al., Behav Brain Res, 56:177-180 (1993). However, animals treated with anxiolytics, such as benzodiazepines (valium), spend more time in the open arms and the number of entries into the open arms reflects a decrease in anxiety-related behaviors (Pellow S. et al., J Neurosci Methods, 14:149-147 (1985); Current Protocols In Neuroscience (1997) 8.3.1-8.3.15, John Wiley & Sons. NY, N.Y.; Chopin P. et al., Psychopharm, 110:409-414 (1993).
Adult male Sprague-Dawley rats receive daily injections of either DMSO, racemic equol (0.250 mg/Kg/day), R-equol (0.250 mg/Kg/day), or S-equol (0.250 mg/Kg/day) in a total volume of 0.3 cc DMSO by subcutaneous injection. At the end of seven consecutive days of treatment the animals are tested in the elevated plus maze in order to quantify anxiety-related behaviors.

[4] = molecular target: T1, AR (Rattus norvegicus, UniProt P15207); assay: Binding to the androgen receptor (prostate supernatant, [3H]DHT)
T1 construct: incubated with prostate supernatant and then passed through the 30 cm column; from tissue; host or cells: prostate supernatant
T1 sequence (P15207 1-902): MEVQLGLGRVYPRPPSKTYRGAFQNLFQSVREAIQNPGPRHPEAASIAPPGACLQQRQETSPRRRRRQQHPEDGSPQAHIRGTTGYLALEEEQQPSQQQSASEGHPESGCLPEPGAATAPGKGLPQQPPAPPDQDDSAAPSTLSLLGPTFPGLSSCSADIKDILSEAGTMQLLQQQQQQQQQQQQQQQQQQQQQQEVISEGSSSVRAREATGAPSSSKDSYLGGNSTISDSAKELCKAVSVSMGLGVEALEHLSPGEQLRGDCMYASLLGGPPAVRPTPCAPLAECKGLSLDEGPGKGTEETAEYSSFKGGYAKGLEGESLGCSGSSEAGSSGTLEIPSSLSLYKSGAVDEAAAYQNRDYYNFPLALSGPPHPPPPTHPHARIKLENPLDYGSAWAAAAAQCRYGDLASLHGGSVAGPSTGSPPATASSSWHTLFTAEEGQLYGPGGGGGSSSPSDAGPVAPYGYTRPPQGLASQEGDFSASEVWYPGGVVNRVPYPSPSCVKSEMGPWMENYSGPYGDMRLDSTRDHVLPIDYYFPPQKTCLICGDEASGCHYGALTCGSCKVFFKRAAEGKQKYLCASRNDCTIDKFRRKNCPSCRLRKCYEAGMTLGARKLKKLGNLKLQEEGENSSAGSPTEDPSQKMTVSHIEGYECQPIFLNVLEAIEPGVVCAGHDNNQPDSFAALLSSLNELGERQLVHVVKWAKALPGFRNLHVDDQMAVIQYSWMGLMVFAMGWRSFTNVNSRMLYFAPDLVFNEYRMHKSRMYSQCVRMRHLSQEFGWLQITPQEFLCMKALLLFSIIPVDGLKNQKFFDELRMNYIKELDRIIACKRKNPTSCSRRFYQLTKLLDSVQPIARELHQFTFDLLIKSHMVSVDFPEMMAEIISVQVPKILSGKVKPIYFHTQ

[5] = molecular target: T2, ERβ (Rattus norvegicus, UniProt Q62986); assay: Competition binding of equol enantiomers with [3H]E2 for in vitro translated ERβ
T2 construct: Full length rat ERα expression vector (pcDNA-ERα; RH Price UCSF) and ERβ expression vector (pcDNA-ERβ; T A Brown, Pfizer; made in house; host or cells: TnT-coupled rabbit reticulocyte lysate in vitro translation (Promega)
T2 sequence (Q62986 whole entry): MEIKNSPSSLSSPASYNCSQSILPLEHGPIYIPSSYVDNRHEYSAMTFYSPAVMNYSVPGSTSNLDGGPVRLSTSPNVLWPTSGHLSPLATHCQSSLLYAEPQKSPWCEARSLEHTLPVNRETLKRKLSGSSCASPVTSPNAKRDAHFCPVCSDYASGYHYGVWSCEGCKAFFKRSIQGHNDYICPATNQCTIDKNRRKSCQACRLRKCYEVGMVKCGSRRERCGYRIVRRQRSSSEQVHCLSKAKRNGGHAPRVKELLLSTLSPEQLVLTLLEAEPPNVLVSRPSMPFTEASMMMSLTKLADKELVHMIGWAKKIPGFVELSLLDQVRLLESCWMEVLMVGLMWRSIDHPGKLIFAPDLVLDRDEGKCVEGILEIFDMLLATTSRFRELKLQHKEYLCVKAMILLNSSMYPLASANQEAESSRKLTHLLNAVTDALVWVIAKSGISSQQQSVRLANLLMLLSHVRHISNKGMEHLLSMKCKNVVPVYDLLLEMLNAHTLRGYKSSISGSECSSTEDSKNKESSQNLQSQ
Experimental: In vitro binding studies were performed to examine the relative affinities of S— and R-enantiomeric equol with the estrogen receptors ERα and ERβ.
Synthesis of Hormone Receptor Proteins: Full length rat ERα expression vector (pcDNA-ERα; RH Price UCSF) and ERβ expression vector (pcDNA-ERβ; T A Brown, Pfizer, Groton, […].) were used to synthesize hormone receptors in vitro using the TnT-coupled reticulocyte lysate system (Promega, Madison, Wis.) with T7-RNA polymerase, during a 90 min reaction at 30° C. Translation reaction mixtures were stored at −80° C. until further use.
Saturation isotherms: In order to calculate and establish the binding affinity of the S-equol and R-equol enantiomers for ERα and ERβ, 100 μL aliquots of reticulocyte lysate supernatant were incubated at optimal time and temperature; 90 min at room temperature (ERβ) and 18 hrs at 4° C. (ERα), with increasing (0.01-100 nm) concentrations of [3H] […] These times were determined empirically and represent optimal binding of receptor with estrogen. Nonspecific binding was assessed using a 300-fold excess of the ER agonist diethylstilbestrol, in parallel tubes. Following incubation, bound and unbound [3H]E2 were separated by passing the incubation reaction through a 1 mL lipophilic Sephadex LH-20 (Sigma-Aldrich Co., Saint Louis, Mo.) column Columns were constructed by packing a disposable pipette tip (1 mL; Labcraft, Curtin Matheson Scientific, Inc, Houston, Tex.) with TEGMD (10 mm Tris-Cl, 1.5 mm EDTA, 10% glycerol, 25 mm molybdate, and 1 mm dithiothreitol, pH 7.4)-saturated Sephadex according to previously published protocols (Wanda et al., 1986; O'Keefe and Handa, 1990). For chromatography, the columns were re-equilibrated with TEGMD (100 μL), and the incubation reactions were added individually to each column and allowed to incubate on the column for an additional 30 min. Following this incubation, 600 μL of TEGMD were added to each column, flow-through was collected, 4 mL scintillation fluid was added, and samples were counted (5 min each) in an 2900 TR Packard scintillation counter (Packard Bioscience, Meriden, Conn.).
Competition binding studies were used to assess the estrogenic properties of equol's S-equol and R-equol enantiomers. Based on the ability of S and R to compete with [3H]

| binding to [3H]E2, [3H]T, [3H]DHEA, [3H]CORT and [3H]progesterone [1] | binding to the androgen receptor ([4]; listed as Equol racemic) | Compound | Body Wt Gain (g) [2] | Epididymis (g) [2] | Prostate (g) [2] | decrease in body weight ([2]; equol experiments) | reduction in white adipose tissue deposition ([2]; racemic equol injections) | Center Area [3] | Open Arm Time [3] | binding to the androgen receptor [4] | affinity for ERβ, fold less [5] | Kd ([5]; competition with [3H]E2, in vitro translated ER) |
| --- | --- | --- | --- | --- | --- | --- | --- | --- | --- | --- | --- | --- |
| without any occurrences of binding | does not bind the androgen receptor | Oc1ccc(C2COc3cc(O)ccc3C2)cc1 (racemic) [equol, 7-hydroxy-3(4′hydroxyphenyl)-chroman] | 56.1 (±3.7) g | 0.89 (±.03) g | 0.38 (±0.02) g | around 10% | around 36% | 37.1 ± 6.3 s | 40.9 ± 7.0 s | does not compete with 5α-DHT for the AR |  |  |
|  |  | Oc1ccc([C@@H]2COc3cc(O)ccc3C2)cc1 [R-equol] | 45.6 (±5.5) g | 0.85 (±0.04) g | 0.31 (±0.02) g |  |  | 36.4 ± 7.6 s | 50.0 ± 10.0 s | does not bind the androgen receptor | approximately 100 fold | 15.4 ± 1.31 nM |
